According to patent US20250129103A1, “METHODS FOR TREATMENT OF CANCER” (Frontier Medicines Corporation, priority 2022, published 2025):
≈ marks a conversion by molar mass, not a printed value.

Assays:
[1] = target: KRAS G12C (GMPPNP-loaded) and PI3Ka (Ras-binding domain) interaction (Homo sapiens (Human), UniProt P01116, C118S/C51S/C80L/G12C); assay: Inhibition of KRAS G12C and PI3Ka binding (AlphaScreen); settings: KRAS G12C loaded with GMPPNP, PI3Ka RBD, 2 hours preincubation; read-out: PI3K RBD K-Ras IC50
Description: The AlphaScreen technology was used to determine IC50S for compound inhibition of KRAS G12C (present as the Cys-light (C51S, C80L and C118S), truncated version comprising amino acids 1-169) and PI3Ka interaction. Compounds were diluted in 100% DMSO and each compound concentration was spotted at 200 nl/well onto low volume, white 384 well plates. The KRAS G12C contained a biotin-AviTag and the PI3Ka, as Ras-binding domain (amino acids 157-300, RBD), was His-tagged. KRAS G12C was preloaded with the GTP analogue Guanosine 5′-[β,γ-imido]triphosphate (GMPPNP). The KRAS G12C was diluted in 25 mM Hepes, pH 7.4, 150 mM NaCl, 5 mM MgCl2, 0.01% TritonX-100 and 10 μM GMPPNP and added at 10 ul/well to compound-spotted plates resulting in a DMSO concentration of 2%. Plates were incubated for 2 hours. A mixture of RBD and the AlphaScreen streptavidin donor and nickel chelate acceptor beads diluted in 25 mM Hepes, pH 7.4, 150 mM NaCl, 5 mM MgCl2, 0.01% TritonX-100 and 2% DMSO was then added at 10 ul/well and incubated for 60-90 minutes before the samples were read for emission at 570 nm after excitation of the donor beads at 680 nm. All incubations were performed at room temperature. The final top compound concentration was 50 μM with 1:3 titrations for 10-point dose response curves. Final assay conditions were 1.5 nM KRAS G12C, 100 nM RBD, 1.25 ug/ml of AlphaScreen donor beads and 10 μg/ml AlphaLISA acceptor beads. IC50s were determined using nonlinear regression fit of [inhibitor] vs. response (4 parameters). […]

[2] = target: KRAS G12C (GMPPNP-loaded) and cRAF (Ras-binding domain) interaction (Homo sapiens (Human), UniProt P01116, C118S/C51S/C80L/G12C); assay: Inhibition of KRAS G12C and cRAF binding (AlphaScreen); settings: KRAS G12C loaded with GMPPNP, cRaf RBD, 2 hours preincubation; read-out: Raf-1 RBD K-Ras IC50
Outline: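 AlphaScreen readout (680 nm excitation, 570 nm emission) of RBD binding after a 60-90 min bead step at room temperature. This step follows 2 h compound exposure of GMPPNP-preloaded KRAS G12C in Hepes pH 7.4 buffer with MgCl2 and 10 μM GMPPNP.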

[3] = Determination of kinetic solubility (pH 7.4); type: physicochemical; settings: phosphate buffer, pH 7.4, aqueous buffer, kinetic from dmso stock, 50 mM phosphate buffer pH 7.4, read-out: Ksol, pH 7.4
Outline: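 Solubility taken from filtrate peak areas on a calibration curve (HPLC-UV, LC-MS/MS). Before filtration and centrifugation, compound was shaken for 2 h at room temperature in pH 7.4 50 mM phosphate buffer.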

[4] = Determination of logD (1-octanol / phosphate buffer pH 7.4); type: physicochemical; settings: 1-octanol/phosphate buffer, pH 7.4, pH 7.4, 1-octanol/phosphate buffer; read-out: Log D, pH 7.4
Outline: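 Each phase analysed by LCMS after 1 h shaking at 800 rpm and centrifugation, room temperature. Phases were mutually saturated 1-octanol and 100 mM phosphate buffer at pH 7.4. LogD derived from the phase concentrations.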

KRAS G12C (GMPPNP-loaded) and cRAF (Ras-binding domain) interaction, sequence (P01116 other isoform, or with tags, fused parts or gaps G12C/C51S/C80L/C118S): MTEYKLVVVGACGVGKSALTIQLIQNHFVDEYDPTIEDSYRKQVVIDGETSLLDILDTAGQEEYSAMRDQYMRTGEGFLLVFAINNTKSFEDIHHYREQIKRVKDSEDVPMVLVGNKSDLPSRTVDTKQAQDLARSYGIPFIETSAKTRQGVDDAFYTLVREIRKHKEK
KRAS G12C (GMPPNP-loaded) and PI3Ka (Ras-binding domain) interaction, sequence (P01116 other isoform, or with tags, fused parts or gaps G12C/C51S/C80L/C118S): as above

| IC50 [1] [nM] | IC50 [2] [nM] | solubility kinetic at 2 h [3] [µg/mL] | logD [4] | SMILES |
| --- | --- | --- | --- | --- |
| 10 to 100 | 10 to 100 |  |  | Cc1cc(N)nc(C2Cc3nc(OC[C@@]45CCCN4C[C@H](F)C5)nc(N4CCN(C(=O)/C=C/c5nc(C(C)C)no5)[C@@H](CC#N)C4)c3CC2C)c1C(F)(F)F (mixture of isomers) [Example 66, 2-((2S)-4-(7-(6-amino-4-methyl-3-(trifluoromethyl)pyridin-2-yl)-2-(((2R,7aS)-2-fluorotetrahydro-1H-pyrrolizin-7a(5H)-yl)methoxy)-6-methyl-5,6,7,8-tetrahydroquinazolin-4-yl)-1-((E)-3-(3-isopropyl-1,2,4-oxadiazol-5-yl)acryloyl)piperazin-2-yl)acetonitrile] |
| 10 to 100 | 10 to 100 |  |  | CN1CCC1/C=C/C(=O)N1CCN(c2nc(OC[C@@]34CCCN3C[C@H](F)C4)nc3c(F)c(-c4cccc5cccc(Cl)c45)ncc23)C[C@@H]1CC#N (some centres unmarked) [Compound 51] |
| < 10 | < 10 |  |  | N#CC[C@H]1CN(c2nc(OC[C@@]34CCCN3C[C@H](F)C4)nc3c(F)c(-c4cccc5cccc(Cl)c45)ncc23)CCN1C(=O)/C=C/CN1CCSCC1 [Compound 97, 2-((S)-4-(7-(8-chloronaphthalen-1-yl)-8-fluoro-2-(((2R,7aS)-2-fluorohexahydro-1H-pyrrolizin-7a-yl)methoxy)pyrido[4,3-d]pyrimidin-4-yl)-1-((E)-4-thiomorpholinobut-2-enoyl)piperazin-2-yl)acetonitrile] |
| < 10 | < 10 |  |  | Cc1nccc(/C=C/C(=O)N2CCN(c3nc(OC[C@@]45CCCN4C[C@H](F)C5)nc4c(F)c(-c5cccc(Cl)c5C5CC5)ncc34)C[C@@H]2CC#N)n1 [Compound 104, 2-((S)-4-(7-(3-chloro-2-cyclopropylphenyl)-8-fluoro-2-(((2R,7aS)-2-fluorotetrahydro-1H-pyrrolizin-7a(5H)-yl)methoxy)pyrido[4,3-d]pyrimidin-4-yl)-1-((E)-3-(2-methylpyrimidin-4-yl)acryloyl)piperazin-2-yl)acetonitrile] |
| < 10 | < 10 |  |  | CCc1nccc(/C=C/C(=O)N2CCN(c3nc(OC[C@@]45CCCN4C[C@H](F)C5)nc4c(F)c(-c5cccc6cccc(Cl)c56)ncc34)C[C@@H]2CC#N)n1 [Compound 150] |
| < 10 | < 10 |  |  | N#CC[C@H]1CN(c2nc(OCC34CCCN3CCC4)nc3c2CCN(c2cccc4cccc(Cl)c24)C3)CCN1C(=O)/C=C/CN1CCC(F)(F)CC1 [Compound 159] |
| < 10 | < 10 |  |  | CC1(C)CN(C/C=C/C(=O)N2CCN(c3nc(OCC45CCCN4CCC5)nc4c3CCN(c3cccc5cccc(Cl)c35)C4)C[C@@H]2CC#N)CCO1 [Compound 165] |
| < 10 | < 10 |  |  | N#CC[C@H]1CN(c2nc(OCC34CCCN3CCC4)nc3c2CCN(c2cccc4cccc(Cl)c24)C3)CCN1C(=O)/C=C/CN1CCCCC1 [Compound 170] |
| < 10 | < 10 |  |  | N#CC[C@H]1CN(c2nc(OC[C@@]34CCCN3C[C@H](F)C4)nc3c(F)c(-c4cccc5cccc(Cl)c45)ncc23)CCN1C(=O)/C=C/CN1C[C@@H]2C[C@H]1CO2 [Compound 180] |
|  | < 10 | 32.3 (≈ 44.2 µM) | 4.05 | N#CC[C@H]1CN(c2nc(OC[C@@]34CCCN3C[C@H](F)C4)nc3c(F)c(-c4cccc(Cl)c4C4CC4)ncc23)CCN1C(=O)/C=C/[C@H]1CCN1C1CC1 [Compound 314] |
|  | < 10 | 124 (≈ 170 µM) | 2.66 | N#CC[C@H]1CN(c2nc(OC[C@@]34CCCN3C[C@H](O)C4)nc3c2CCN(c2cccc4cccc(Cl)c24)C3)CCN1C(=O)/C=C/CN1CCOCC1 [Compound 316] |
|  | < 10 | 114 (≈ 148 µM) | 2.01 | N#CC[C@H]1CN(c2nc(OCC34CCCN3CCC4)nc3c2CCN(c2cccc4cccc(Cl)c24)C3)CCN1C(=O)/C=C/CN1CCN(C2COC2)CC1 [Compound 317] |
|  | < 10 | 123 (≈ 166 µM) | 1.54 | N#CC[C@H]1CN(c2nc(OC[C@@]34CCCN3C[C@H](O)C4)nc3c(F)c(-c4cccc5cccc(Cl)c45)ncc23)CCN1C(=O)/C=C/CN1CCOCC1 [Compound 319] |
|  | < 10 | 162 (≈ 214 µM) | 1.52 | N#CC[C@H]1CN(c2nc(OC[C@@]34CCCN3C[C@H](O)C4)nc3c(F)c(-c4cccc5ccc(F)c(Cl)c45)ncc23)CCN1C(=O)/C=C/CN1CCOCC1 [Compound 321] |
|  | 100 to 500 | 74.5 (≈ 104 µM) | 2.71 | Cc1cc(N)nc([C@H]2Cc3nc(OC[C@@]45CCCN4C[C@H](F)C5)nc(N4CCN(C(=O)/C=C/CN(C)C)[C@@H](CC#N)C4)c3C[C@@H]2C)c1C(F)(F)F [Compound 323] |
|  | < 10 | 115 (≈ 144 µM) | 2.5 | N#CC[C@H]1CN(c2nc(OC[C@@]34CCCN3C[C@H](F)C4)nc3c(F)c(-c4cccc5cccc(Cl)c45)ncc23)CCN1C(=O)/C=C/CN1CCN(C2COC2)CC1 [Compound 325] |
|  | 10 to 100 | 161 (≈ 227 µM) | 2.15 | Cc1noc(/C=C/C(=O)N2CCN(c3nc(OCC45CCCN4CCC5)nc4c(F)c(-c5cccc6cccc(Cl)c56)ncc34)C[C@@H]2CC#N)n1 [Example 5, (S,E)-2-(4-(7-(8-chloronaphthalen-1-yl)-8-fluoro-2-((tetrahydro-1H-pyrrolizin-7a(5H)-yl)methoxy)pyrido[4,3-d]pyrimidin-4-yl)-1-(3-(3-methyl-1,2,4-oxadiazol-5-yl)acryloyl)piperazin-2-yl)acetonitrile] |
|  | 10 to 100 | 86.4 (≈ 117 µM) | 2.72 | N#CC[C@H]1CN(c2nc(OCC34CCCN3CCC4)nc3c2CCN(c2cccc4cccc(Cl)c24)C3)CCN1C(=O)/C=C/c1nc(C2COC2)no1 [Example 6, (S,E)-2-(4-(7-(8-chloronaphthalen-1-yl)-2-((tetrahydro-1H-pyrrolizin-7a(5H)-yl)methoxy)-5,6,7,8-tetrahydropyrido[3,4-d]pyrimidin-4-yl)-1-(3-(3-(oxetan-3-yl)-1,2,4-oxadiazol-5-yl)acryloyl)piperazin-2-yl)acetonitrile] |
|  | < 10 | 0.01 (≈ 0.0133 µM) | 2.69 | N#CC[C@H]1CN(c2nc(OC[C@@]34CCCN3C[C@H](F)C4)nc3c2CCN(c2cccc4cccc(Cl)c24)C3)CCN1C(=O)/C=C/c1nc(C2COC2)no1 [Example 7, 2-((S)-4-(7-(8-chloronaphthalen-1-yl)-2-(((2R,7aS)-2-fluorohexahydro-1H-pyrrolizin-7a-yl)methoxy)-5,6,7,8-tetrahydropyrido[3,4-d]pyrimidin-4-yl)-1-((E)-3-(3-(oxetan-3-yl)-1,2,4-oxadiazol-5-yl)acryloyl)piperazin-2-yl)acetonitrile] |
|  | 10 to 100 | 73.1 (≈ 99 µM) | 3.04 | CC(C)(O)c1noc(/C=C/C(=O)N2CCN(c3nc(OCC45CCCN4CCC5)nc4c3CCN(c3cccc5cccc(Cl)c35)C4)C[C@@H]2CC#N)n1 [Example 16, (S,E)-2-(4-(7-(8-chloronaphthalen-1-yl)-2-((hexahydro-1H-pyrrolizin-7a-yl)methoxy)-5,6,7,8-tetrahydropyrido[3,4-d]pyrimidin-4-yl)-1-(3-(3-(2-hydroxypropan-2-yl)-1,2,4-oxadiazol-5-yl)acryloyl)piperazin-2-yl)acetonitrile] |

| SMILES | IC50 [1] [nM] | IC50 [2] [nM] | solubility kinetic at 2 h [3] [µg/mL] | logD [4] |
| --- | --- | --- | --- | --- |
| N#CC[C@H]1CN(c2nc(OC[C@@]34CCCN3C[C@H](F)C4)nc3c(F)c(-c4cccc(Cl)c4C4CC4)ncc23)CCN1C(=O)/C=C/CN1[C@@H]2CC[C@H]1COC2 [Compound 100, 2-((S)-1-((E)-4-((1R,5S)-3-oxa-8-azabicyclo[3.2.1]octan-8-yl)but-2-enoyl)-4-(7-(3-chloro-2-cyclopropylphenyl)-8-fluoro-2-(((2R,7aS)-2-fluorotetrahydro-1H-pyrrolizin-7a(5H)-yl)methoxy)pyrido[4,3-d]pyrimidin-4-yl)piperazin-2-yl)acetonitrile] | < 10 | < 10 |  |  |
